Test results reported in ChEMBL document CHEMBL1201862, “PubChem BioAssay data set” (2004).
The source made the active and inactive calls.

Key:
[1] = molecular target: T1, Rac GTPase-activating protein 1 (Homo sapiens, UniProt Q9H0H5); assay: blockers of MgcRacGAP-driven Rac1 GTP hydrolysis – biochemical, ADP Hunter fluorescence, primary and confirmatory, confirmation (AID 624330); format: functional
T1 sequence (Q9H0H5 whole entry): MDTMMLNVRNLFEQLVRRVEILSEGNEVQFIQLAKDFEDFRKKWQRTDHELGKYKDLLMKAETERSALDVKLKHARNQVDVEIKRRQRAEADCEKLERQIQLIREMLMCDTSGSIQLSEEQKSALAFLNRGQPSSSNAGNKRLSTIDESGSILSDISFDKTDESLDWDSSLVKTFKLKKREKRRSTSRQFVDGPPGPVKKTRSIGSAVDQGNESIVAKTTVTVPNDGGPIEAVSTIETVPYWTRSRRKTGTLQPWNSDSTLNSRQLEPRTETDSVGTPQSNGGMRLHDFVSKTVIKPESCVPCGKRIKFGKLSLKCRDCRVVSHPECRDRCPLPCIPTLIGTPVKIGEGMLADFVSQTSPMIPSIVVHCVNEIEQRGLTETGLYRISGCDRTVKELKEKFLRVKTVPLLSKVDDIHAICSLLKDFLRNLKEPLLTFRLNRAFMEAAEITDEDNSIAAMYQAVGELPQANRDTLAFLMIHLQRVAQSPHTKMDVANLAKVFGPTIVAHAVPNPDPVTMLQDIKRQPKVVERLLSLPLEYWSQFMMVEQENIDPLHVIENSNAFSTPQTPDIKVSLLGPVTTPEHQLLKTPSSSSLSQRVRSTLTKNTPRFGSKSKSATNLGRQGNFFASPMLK

[2] = molecular target: T2, Histone-lysine N-methyltransferase NSD2 (Homo sapiens, UniProt O96028); format: biochemical
T2 sequence (O96028 whole entry): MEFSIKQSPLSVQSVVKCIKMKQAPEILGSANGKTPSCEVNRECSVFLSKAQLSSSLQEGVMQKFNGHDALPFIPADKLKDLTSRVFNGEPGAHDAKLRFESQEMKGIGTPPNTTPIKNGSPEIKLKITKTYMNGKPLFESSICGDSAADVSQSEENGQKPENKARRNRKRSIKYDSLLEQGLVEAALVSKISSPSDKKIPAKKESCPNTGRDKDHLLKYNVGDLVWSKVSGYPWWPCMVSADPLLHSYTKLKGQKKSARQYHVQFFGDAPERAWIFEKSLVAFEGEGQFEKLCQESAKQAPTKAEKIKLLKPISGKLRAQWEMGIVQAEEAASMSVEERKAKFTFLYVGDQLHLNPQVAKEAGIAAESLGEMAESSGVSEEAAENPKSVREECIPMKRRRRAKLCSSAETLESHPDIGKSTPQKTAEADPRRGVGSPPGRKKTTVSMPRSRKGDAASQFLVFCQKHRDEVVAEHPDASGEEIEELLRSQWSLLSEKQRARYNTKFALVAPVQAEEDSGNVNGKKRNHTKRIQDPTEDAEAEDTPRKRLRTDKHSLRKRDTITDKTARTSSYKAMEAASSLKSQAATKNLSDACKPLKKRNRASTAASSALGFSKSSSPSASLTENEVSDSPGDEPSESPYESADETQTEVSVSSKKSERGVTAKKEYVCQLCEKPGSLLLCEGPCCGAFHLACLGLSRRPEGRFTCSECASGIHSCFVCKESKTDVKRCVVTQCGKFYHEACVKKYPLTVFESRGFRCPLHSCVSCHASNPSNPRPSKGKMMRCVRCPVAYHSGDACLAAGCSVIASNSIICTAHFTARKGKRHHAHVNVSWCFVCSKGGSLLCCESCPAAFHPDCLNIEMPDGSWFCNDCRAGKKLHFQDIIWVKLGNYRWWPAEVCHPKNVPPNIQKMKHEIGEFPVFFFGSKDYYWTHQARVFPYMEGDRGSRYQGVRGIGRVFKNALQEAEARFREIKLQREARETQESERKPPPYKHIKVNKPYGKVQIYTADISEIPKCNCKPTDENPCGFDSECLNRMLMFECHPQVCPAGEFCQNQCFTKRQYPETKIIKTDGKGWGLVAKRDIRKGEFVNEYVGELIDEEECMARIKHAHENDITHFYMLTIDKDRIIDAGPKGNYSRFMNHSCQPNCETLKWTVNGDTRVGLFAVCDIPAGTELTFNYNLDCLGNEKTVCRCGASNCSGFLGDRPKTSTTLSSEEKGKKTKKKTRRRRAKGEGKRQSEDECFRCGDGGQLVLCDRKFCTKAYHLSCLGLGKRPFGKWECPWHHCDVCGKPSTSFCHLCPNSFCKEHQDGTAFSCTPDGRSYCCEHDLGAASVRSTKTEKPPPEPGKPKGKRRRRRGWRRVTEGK

Albumin = Albumin (Bos taurus, UniProt P02769); assay: Counterscreen for inhibitors of T-cell receptor (TCR)-CD3 interaction: Fluorescence-based biochemical high throughput dose response assay to identify inhibitors of T-cell receptor (TCR)-CD3 interaction using a TAMRA-labeled BSA probe.; format: functional
[3] = T. cruzi growth inhibition in host cells, dose response, cell-based, plate reader, dry powder, set 2 (AID 652275); format: functional

Sequence of Albumin (P02769 whole entry): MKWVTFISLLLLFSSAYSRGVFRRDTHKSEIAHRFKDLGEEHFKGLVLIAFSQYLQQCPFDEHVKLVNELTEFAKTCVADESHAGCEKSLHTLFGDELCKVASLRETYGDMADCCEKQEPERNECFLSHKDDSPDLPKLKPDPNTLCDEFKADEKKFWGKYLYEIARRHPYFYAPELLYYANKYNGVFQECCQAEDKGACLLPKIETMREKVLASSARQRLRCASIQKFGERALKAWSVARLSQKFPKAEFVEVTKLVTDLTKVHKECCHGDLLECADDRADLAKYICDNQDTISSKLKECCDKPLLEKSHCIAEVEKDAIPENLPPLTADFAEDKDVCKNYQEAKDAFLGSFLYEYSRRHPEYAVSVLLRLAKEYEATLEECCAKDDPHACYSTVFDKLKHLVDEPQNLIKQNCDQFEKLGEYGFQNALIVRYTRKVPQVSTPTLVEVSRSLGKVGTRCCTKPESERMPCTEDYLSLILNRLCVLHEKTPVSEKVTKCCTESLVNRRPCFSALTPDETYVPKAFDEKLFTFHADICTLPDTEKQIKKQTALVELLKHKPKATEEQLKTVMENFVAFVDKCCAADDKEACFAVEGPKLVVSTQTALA

SMILES	IC50 [1]	AC50 [2]	IC50 (Albumin)	AC50 [3]
CN(C)C=O.O=C(O)c1ccccc1NS(=O)(=O)c1ccc(N/N=C/c2ccc(O)c(O)c2)c([N+](=O)[O-])c1	60.7 µM (active)	1.71 µM (active)	> 94.1 µM (inactive)	
COC[C@H](C)N1C[C@H](C)[C@@H](CN(C)Cc2ccc(Cl)cc2)Oc2c(NC(=O)c3ccncc3)cccc2C1=O				0.00139 µM (active)
COCC(=O)N1CCCCN2[C@@H](CO)[C@H](c3ccc(-c4cccc(C)c4)cc3)[C@@H]2C1				1.42 µM (active)
O=C(c1ccncc1)N1CCCCN2[C@@H](CO)[C@H](c3ccc(-c4ccccc4)cc3)[C@@H]2C1				4.5 µM (active)
